# According to ChEMBL document CHEMBL1201862, “PubChem BioAssay data set” (2004):
#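 Five concentrations, 48 hours, 96-well plates. GI50 is the concentration that inhibits growth by half.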 Activity calls are given as the source filed them. No stated cut-off is given here; in the data, active = GI50 up to about 1.1 µM and inactive = higher.
# Tests used:
# Assay in all cases: NCI anticancer screen, dose series, 48 h
# COLO 205 = test system: COLO 205
# NCI-H226 = test system: NCI-H226
# SK-MEL-28 = test system: SK-MEL-28
# HCT-15 = test system: HCT-15
# HCT-116 = test system: HCT-116
# Malme-3M = test system: Malme-3M
# HT-29 = test system: HT-29
# SF-295 = test system: SF-295
# ACHN = test system: ACHN
# CCRF-CEM = test system: CCRF-CEM
# SK-MEL-5 = test system: SK-MEL-5
# HOP-92 = test system: HOP-92
# UACC-257 = test system: UACC-257
# SNB-19 = test system: SNB-19
# OVCAR-8 = test system: OVCAR-8
# K562 = test system: K562
# HCC 2998 = test system: HCC 2998
# SF-539 = test system: SF-539
# SK-OV-3 = test system: SK-OV-3
# SR = test system: SR
Compound,GI50 (COLO 205),GI50 (NCI-H226),GI50 (SK-MEL-28),GI50 (HCT-15) [µM],GI50 (HCT-116),GI50 (Malme-3M),GI50 (HT-29),GI50 (SF-295),GI50 (ACHN),GI50 (CCRF-CEM),GI50 (SK-MEL-5),GI50 (HOP-92),GI50 (UACC-257),GI50 (SNB-19),GI50 (OVCAR-8),GI50 (K562),GI50 (HCC 2998),GI50 (SF-539),GI50 (SK-OV-3),GI50 (SR)
c1nc2nc[nH]c(SSc3[nH]cnc4ncnc3-4)c-2n1,0.653 µM (active),0.476 µM (active),61.8 µM (inactive),0.925,0.41 µM (active),0.376 µM (active),1.19 µM (inactive),0.127 µM (active),3.21 µM (inactive),0.202 µM (active),4.83 µM (inactive),< 0.01 µM (active),2.63 µM (inactive),47.4 µM (inactive),0.455 µM (active),< 0.0472 µM (active),–,–,–,–
COc1nc(-c2cn(S(=O)(=O)c3ccc(C)cc3)c3ccc(Br)cc23)cc(C(F)(F)F)c1C#N,> 100 µM (inactive),18 µM (inactive),94.4 µM (inactive),41.4,–,> 100 µM (inactive),> 100 µM (inactive),97.3 µM (inactive),29.1 µM (inactive),24.8 µM (inactive),77.6 µM (inactive),31.3 µM (inactive),53.1 µM (inactive),25.9 µM (inactive),25.6 µM (inactive),27.8 µM (inactive),85.9 µM (inactive),34.9 µM (inactive),21 µM (inactive),–
O=[N+]([O-])c1cc2ncc(-c3ccccc3)c(O)c2cc1/C(Cl)=C/c1ccccc1,7.82 µM (inactive),13 µM (inactive),17.2 µM (inactive),11.1,6.89 µM (inactive),–,13.4 µM (inactive),6.65 µM (inactive),–,4.43 µM (inactive),5.04 µM (inactive),3.47 µM (inactive),24.3 µM (inactive),16.3 µM (inactive),5.6 µM (inactive),5.86 µM (inactive),8.26 µM (inactive),11.6 µM (inactive),27.1 µM (inactive),–
CC1(C)OC2COC3(CNO)OC(C)(C)OC3C2O1 (configuration not stated),> 100 µM (inactive),> 100 µM (inactive),> 100 µM (inactive),> 100,> 100 µM (inactive),> 100 µM (inactive),> 100 µM (inactive),> 100 µM (inactive),> 100 µM (inactive),> 100 µM (inactive),> 100 µM (inactive),65.8 µM (inactive),> 100 µM (inactive),> 100 µM (inactive),> 100 µM (inactive),> 100 µM (inactive),> 100 µM (inactive),> 100 µM (inactive),> 100 µM (inactive),–
CC(=O)/C=C/c1c[nH]c(=O)[nH]c1=O,154 µM (inactive),204 µM (inactive),190 µM (inactive),210,128 µM (inactive),243 µM (inactive),420 µM (inactive),304 µM (inactive),–,92 µM (inactive),271 µM (inactive),8.13 µM (inactive),265 µM (inactive),295 µM (inactive),241 µM (inactive),229 µM (inactive),236 µM (inactive),214 µM (inactive),166 µM (inactive),–
CC(C)(C)[Si](C)(C)OCCOCn1cc(F)c(=O)[nH]c1=O,> 100 µM (inactive),> 100 µM (inactive),–,> 100,> 100 µM (inactive),> 100 µM (inactive),> 100 µM (inactive),> 100 µM (inactive),> 100 µM (inactive),> 100 µM (inactive),> 100 µM (inactive),–,> 100 µM (inactive),> 100 µM (inactive),> 100 µM (inactive),> 100 µM (inactive),–,> 100 µM (inactive),> 100 µM (inactive),> 100 µM (inactive)
NC(=O)NN=C(CS)CS,23.1 µM (inactive),–,30.6 µM (inactive),22.8,38.5 µM (inactive),19.7 µM (inactive),20.7 µM (inactive),23.7 µM (inactive),–,36.9 µM (inactive),17 µM (inactive),21.9 µM (inactive),19.5 µM (inactive),23.1 µM (inactive),27.5 µM (inactive),51.1 µM (inactive),31 µM (inactive),21.8 µM (inactive),89.3 µM (inactive),–
O=C(NCCCCCCNC(=O)n1cc(F)c(=O)[nH]c1=O)NCCCOCCOCCCNC(=O)C(O)C(O)C(O)C(O)CO (configuration not stated),> 2.5 µM (inactive),> 2.5 µM (inactive),> 2.5 µM (inactive),2.43,> 2.05 µM (inactive),> 1.53 µM (inactive),> 2.32 µM (inactive),> 2.5 µM (inactive),–,> 2.5 µM (inactive),> 2.5 µM (inactive),> 2.5 µM (inactive),> 2.5 µM (inactive),> 2.5 µM (inactive),> 2.5 µM (inactive),> 2.5 µM (inactive),0.152 µM (active),> 1.84 µM (inactive),> 2.5 µM (inactive),–
Nc1ncnc2c1sc1nc3ccccc3n12,> 100 µM (inactive),51.1 µM (inactive),> 100 µM (inactive),> 100,–,> 71.3 µM (inactive),> 70.8 µM (inactive),> 56.2 µM (inactive),57.7 µM (inactive),19.8 µM (inactive),52 µM (inactive),> 100 µM (inactive),> 100 µM (inactive),> 100 µM (inactive),60.8 µM (inactive),> 100 µM (inactive),> 44.8 µM (inactive),20.4 µM (inactive),12.5 µM (inactive),–
CCOC(=O)[C@H]1Nc2c(cccc2[N+](=O)[O-])[C@H]2OCC[C@@H]12,> 100 µM (inactive),> 100 µM (inactive),> 100 µM (inactive),> 100,> 100 µM (inactive),> 100 µM (inactive),> 100 µM (inactive),> 100 µM (inactive),> 100 µM (inactive),–,> 100 µM (inactive),–,11.5 µM (inactive),> 100 µM (inactive),> 100 µM (inactive),> 100 µM (inactive),> 100 µM (inactive),> 100 µM (inactive),–,> 100 µM (inactive)
CCSc1nc(N)c2c(-c3ccccc3)c3c(nc2n1)CCC3,> 100 µM (inactive),–,> 100 µM (inactive),> 100,> 100 µM (inactive),> 100 µM (inactive),–,> 100 µM (inactive),> 100 µM (inactive),> 100 µM (inactive),> 100 µM (inactive),–,> 100 µM (inactive),> 100 µM (inactive),> 100 µM (inactive),> 100 µM (inactive),–,6.53 µM (inactive),> 100 µM (inactive),> 100 µM (inactive)
N=C(N)NS(=O)(=O)c1ccc(Nc2c3ccccc3nc3c(C(=O)N4CCN(CCO)CC4)ccc(Cl)c23)cc1,> 100 µM (inactive),> 100 µM (inactive),> 100 µM (inactive),> 100,> 100 µM (inactive),> 100 µM (inactive),> 100 µM (inactive),> 100 µM (inactive),> 100 µM (inactive),> 100 µM (inactive),> 100 µM (inactive),> 100 µM (inactive),> 100 µM (inactive),> 100 µM (inactive),> 100 µM (inactive),> 100 µM (inactive),> 100 µM (inactive),> 100 µM (inactive),> 100 µM (inactive),–
C[Si](C)(C)CC(N)=O,> 100 µM (inactive),> 100 µM (inactive),> 100 µM (inactive),> 100,> 100 µM (inactive),> 100 µM (inactive),> 100 µM (inactive),> 100 µM (inactive),> 100 µM (inactive),> 100 µM (inactive),> 100 µM (inactive),> 100 µM (inactive),> 100 µM (inactive),> 100 µM (inactive),> 100 µM (inactive),> 100 µM (inactive),> 100 µM (inactive),–,> 100 µM (inactive),–
CC(C)(Br)C(Br)CCC(C)(Br)C(Br)CO (configuration not stated),> 10 µM (inactive),> 10 µM (inactive),> 10 µM (inactive),> 10,> 10 µM (inactive),> 10 µM (inactive),> 10 µM (inactive),> 10 µM (inactive),> 10 µM (inactive),> 10 µM (inactive),> 10 µM (inactive),> 10 µM (inactive),> 10 µM (inactive),> 10 µM (inactive),> 10 µM (inactive),> 10 µM (inactive),> 10 µM (inactive),> 10 µM (inactive),> 10 µM (inactive),–
N/N=C1/C2CN3CCN(C2)CC1(c1ccc([N+](=O)[O-])cc1)C3,> 100 µM (inactive),> 100 µM (inactive),> 100 µM (inactive),–,> 100 µM (inactive),> 100 µM (inactive),> 100 µM (inactive),> 100 µM (inactive),> 100 µM (inactive),–,> 100 µM (inactive),–,> 100 µM (inactive),> 100 µM (inactive),> 100 µM (inactive),> 100 µM (inactive),–,> 100 µM (inactive),–,27.7 µM (inactive)
CCN(CC)c1ccc2cc(C(=O)Nc3ccc4[nH]c(C(=O)N5C[C@@H](CCl)c6c5cc(OC(=O)Nc5ccccc5)c5[nH]cc(C)c65)cc4c3)oc2c1 [CARZELESIN],–,–,0.000479 µM (active),0.000676,152 µM (inactive),0.000256 µM (active),> 1000 µM (inactive),–,–,0.000168 µM (active),306 µM (inactive),> 1000 µM (inactive),384 µM (inactive),294 µM (inactive),234 µM (inactive),0.000556 µM (active),434 µM (inactive),318 µM (inactive),0.00042 µM (active),–
